# Reference: ChEMBL document CHEMBL1124356, “Active reduced-size hexapeptide analogues of luteinizing hormone-releasing hormone” (J Med Chem, 1989)
# pKi: −log10 of the molar value.
# Assays:
# [1] = target: Gonadotropin-releasing hormone receptor (Rattus norvegicus) (UniProt P30969); assay: Luteinizing hormone inhibiting potency in rats is expressed as negative logarithm of the concentration (antagonist); settings: read-out: pA2 (converted)
# [2] = target: T1, Gonadotropin-releasing hormone receptor (Rattus norvegicus, UniProt P30969); assay: In vitro binding affinity towards […] from rat pituitary cells is expressed as negative logarithm of the equilibrium dissociation constant; format: cell-based, Pituitary gland cell
# T1 sequence (P30969 whole entry): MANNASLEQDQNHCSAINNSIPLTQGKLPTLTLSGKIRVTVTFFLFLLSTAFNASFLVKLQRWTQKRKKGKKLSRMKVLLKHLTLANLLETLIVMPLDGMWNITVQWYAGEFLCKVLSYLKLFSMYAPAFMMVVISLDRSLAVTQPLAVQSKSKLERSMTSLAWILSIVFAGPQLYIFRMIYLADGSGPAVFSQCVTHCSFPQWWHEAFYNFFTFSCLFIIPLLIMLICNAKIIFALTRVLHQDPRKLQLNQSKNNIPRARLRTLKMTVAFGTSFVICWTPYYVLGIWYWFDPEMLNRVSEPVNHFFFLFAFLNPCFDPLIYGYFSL
Kb [1] [nM],pKi [2],Structure (SMILES)
57.5,–,CCNC(=O)[C@@H]1CCCN1C(=O)[C@H](CCCN=C(N)N)NC(=O)[C@H](CC(C)C)NC(=O)[C@@H](Cc1c[nH]c2ccccc12)NC(=O)[C@H](Cc1ccc(O)cc1)NC(=O)[C@H](CO)NC(=O)[C@@H](N)Cc1c[nH]c2ccccc12
871,–,CCNC(=O)[C@@H]1CCCN1C(=O)[C@H](CCCN=C(N)N)NC(=O)[C@H](CC(C)C)NC(=O)[C@@H](CC(C)C)NC(=O)[C@H](Cc1ccc(O)cc1)NC(=O)[C@H](CO)NC(=O)[C@@H](N)Cc1c[nH]c2ccccc12
–,7.30,CCNC(=O)[C@@H]1CCCN1C(=O)[C@H](CCCN=C(N)N)NC(=O)[C@H](CC(C)C)NC(=O)[C@@H](CC(C)C)NC(=O)[C@H](Cc1ccc(O)cc1)NC(=O)[C@H](CO)NC(=O)[C@@H](N)Cc1cccc2ccccc12
